Experimental findings from US20240246941A1, “SUBSTITUTED 4-(3-AMINOPROP-1-YL)AMINOQUINOLINE ANALOGS AS MODULATORS OF MELANOMA-ASSOCIATED ANTIGEN 11 UBIQUITIN LIGASE” (ST. JUDE CHILDREN'S RESEARCH HOSPITAL, INC., priority 2020, published 2024) are described below.

One experiment deals with MAGE-A11:PCF11 (Homo sapiens (Human), UniProt P43364). The experiment in a line: TR-FRET single point screening at 15 μM. The format is binding. On the set-up: unit not given here. The settings on record: single point TR-FRET screening at 15 μM against MAGE-A11:PCF11. In outline: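 Competition TR-FRET: compounds at final 15 μM mixed with 200 nM FAM-PCF11_4, 5 nM GST-MAGEA11 and 5 nM Tb-anti-GST in Tris pH 7.5/MgCl2/BSA/DTT buffer, room temperature, 90 min. Emission ratio 520/490 nm (340 nm excitation) expressed as % inhibition relative to positive and negative controls.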
Sequence of MAGE-A11:PCF11 (P43364 218-429): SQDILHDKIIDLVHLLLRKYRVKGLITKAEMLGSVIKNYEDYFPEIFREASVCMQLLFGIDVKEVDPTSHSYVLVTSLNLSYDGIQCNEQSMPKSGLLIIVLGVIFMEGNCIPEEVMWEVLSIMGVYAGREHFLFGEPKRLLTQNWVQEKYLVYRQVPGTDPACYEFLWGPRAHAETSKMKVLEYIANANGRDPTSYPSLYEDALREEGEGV
On the technique in general: TR-FRET usually uses a lanthanide donor and a delayed reading to cut background.
Take `CCCN(CCCNc1c2ccc(Cl)cc2nc2ccc(OC)cc12)Cc1c[nH]c2ccccc12` [SJ000522978]: the TR-FRET signal is recorded as −166.2.

Consider `CCCN(CCCNc1c2ccc(Cl)cc2nc2ccc(OC)cc12)Cc1cccc2c1OCO2` [SJ000522979], for which the TR-FRET signal was −108. Still for that read-out and setting: then `CCCN(CCCNc1c2ccc(Cl)cc2nc2ccc(OC)cc12)Cc1cnn(C)c1` [SJ000522980], with −276.6; and `CCCN(CCCNc1c2ccc(Cl)cc2nc2ccc(OC)cc12)CCOCc1ccccc1` [SJ000522981], with −212.4. `CCCN(CCCNc1c2ccc(Cl)cc2nc2ccc(OC)cc12)CCC(C)(C)C` [SJ000522983] registered a TR-FRET signal of −233.7.

As to `CCCN(CCCNc1c2ccc(Cl)cc2nc2ccc(OC)cc12)Cc1cccn1C` [SJ000522987], the TR-FRET signal is −302.6. On the same count and under the same terms, to `CCCN(CCCNc1c2ccc(Cl)cc2nc2ccc(OC)cc12)Cc1nccs1` [SJ000522988] belongs −117.5.

The same experiment, now with this note: single point TR-FRET screening of quinoline compounds against MAGE-A11:PCF11; 15 μM.
`CCCN(CCCNc1c2ccc(Cl)cc2nc2ccc(OC)cc12)Cc1cccnc1Br` [SJ000522977]: the TR-FRET signal amounted to 0.2567. Compound `CCCN(CCCNc1c2ccc(Cl)cc2nc2ccc(OC)cc12)Cc1cc(F)cc(F)c1O` [SJ000522982] came in with a TR-FRET signal of 2.045.

`CCCN(CCCNc1c2ccc(Cl)cc2nc2ccc(OC)cc12)Cc1cc(OC(F)(F)F)ccc1OC` [SJ000522984] gave a TR-FRET signal of −36.71.

As for `CCCN(CCCNc1c2ccc(Cl)cc2nc2ccc(OC)cc12)Cc1cc(C(F)(F)F)ccc1OC` [SJ000522985], the TR-FRET signal is given as −46.02.

`CCCN(CCCNc1c2ccc(Cl)cc2nc2ccc(OC)cc12)Cc1cccc(C(F)(F)F)c1` [SJ000522986] displayed a TR-FRET signal of 16.15. In turn, `CCCN(CCCNc1c2ccc(Cl)cc2nc2ccc(OC)cc12)Cc1cc(Br)cs1` [SJ000522989] showed a TR-FRET signal of −56.7. The same measure, in the same setting: then `CCCN(CCCNc1ccnc2cc(Cl)ccc12)Cc1c[nH]c(C)n1` [SJ000522990], with 4.828; and `CCCN(CCCNc1ccnc2cc(Cl)ccc12)Cc1cc2ccccc2o1` [SJ000522991], with 9.295; and `CCCN(CCCNc1ccnc2cc(Cl)ccc12)Cc1c[nH]c2ccc(F)cc12` [SJ000522992], with 29.34. The compound `CCCN(CCCNc1ccnc2cc(Cl)ccc12)Cc1cc2ccccc2s1` [SJ000522993] yielded a TR-FRET signal of 5.864. Still for that read-out and setting: then `CCCN(CCCNc1ccnc2cc(Cl)ccc12)Cc1ccc(OC)c(F)c1` [SJ000522994], with 15.16; and `CCCN(CCCNc1ccnc2cc(Cl)ccc12)Cc1cn(C)c2ccccc12` [SJ000522995], with −1.532; and `CCCN(CCCNc1ccnc2cc(Cl)ccc12)Cc1cc(OC)ccc1F` [SJ000522996], with 26.66. Turning to `CCCN(CCCNc1ccnc2cc(Cl)ccc12)Cc1nc(C)cs1` [SJ000522997], the TR-FRET signal amounted to 3.413.

Compound `CCCN(CCCNc1ccnc2cc(Cl)ccc12)Cc1ccc(OC(F)(F)F)cc1` [SJ000522999] had a TR-FRET signal of 22.74. For the compound `C#Cc1ccccc1CN(CCC)CCCNc1ccnc2cc(Cl)ccc12` [SJ000523000], the TR-FRET signal was 12.45. In turn, `CCCN(CCCNc1ccnc2cc(Cl)ccc12)Cc1ccc(CC)cc1` [SJ000523001] had a TR-FRET signal of 30.13. The same measure, in the same setting: then `CCCN(CCCNc1ccnc2cc(Cl)ccc12)Cc1nccn1C` [SJ000523002], with 6.351. Consider `CCCN(CCCNc1ccnc2cc(Cl)ccc12)Cc1cncc(Br)c1` [SJ000523004], for which the TR-FRET signal is given as 4.828. Compound `CCCN(CCCNc1ccnc2cc(Cl)ccc12)Cc1scnc1C` [SJ000523005] registered a TR-FRET signal of 11.85. The same measure, in the same setting: to `CCCN(CCCNc1ccnc2cc(Cl)ccc12)Cc1cccnc1Br` [SJ000523006] belongs 13.31; to `CCCN(CCCNc1ccnc2cc(Cl)ccc12)Cc1c[nH]c2ccccc12` [SJ000523007], 26.23. `CCCN(CCCNc1ccnc2cc(Cl)ccc12)Cc1ncc[nH]1` [SJ000523008]: the TR-FRET signal is recorded as 4.165.
